Data taken from patent publication US11123398B2, “Chemotherapeutic combinations of cationic antimicrobial peptides and chemotherapeutics” (LYTIX BIOPHARMA AS, priority 2014, dated 2021).
Non-standard residues stand in square brackets, D forms with d. Residues, ends and D or L forms follow the SMILES beside them. No end group written: not given here. Bip = N[C@@H](Cc1ccc(-c2ccccc2)cc1)C(=O)O; dBip = N[C@H](Cc1ccc(-c2ccccc2)cc1)C(=O)O; Dip = N[C@H](C(=O)O)C(c1ccccc1)c1ccccc1

Assays:
[1] = test system: panel of 37 human cancer cell lines; assay type: cell-based; settings: for IC50: 4 h; for IC50 range against 37 human cancer cell lines: conclusion
Method: The adherent cell lines were washed once with 200 μl FBS-free culture medium before treatment. […] compounds in ¼ dilution step with a top dose of 400 μM (range 4×10^−4 to 4×10^−10 M), with 1% (final concentration) Triton X-100 as positive control and FBS-free culture medium as negative control. The cells (190 μl) were incubated in a 200 μl final volume of FBS-free culture medium containing test substances at 37° C. under 5% CO2.
(§1) Three independent experiments were performed, each concentration being tested in quadruplicate. Control cells were treated with vehicle alone. At the end of treatments, the cytotoxic activity was evaluated by a MTS assay (see § 3.3.).
(§2) Like MTT, MTS is bioreduced by cells into a formazan product that is directly soluble in culture medium without processing, unlike MTT.
(§3) At the end of the cells treatment, 40 μl of a 0.22 μm filtered freshly combined solution of MTS (20 ml at 2 mg/ml, Ref G1111, Batch 235897, Exp March 2009, Promega, Charbonnières, France) and PMS (1 ml at 0.92 mg/ml, Ref P9625, Batch 065K0961, Sigma) in Dulbecco's Phosphate Buffered Saline (DPBS, Ref 17-513Q, Batch 6MB0152, Cambrex), were added in each well. Culture plates were incubated for 2 h at 37° C. Absorbency (OD) were measured at 490 nm in each well using VICTOR^3™ 1420 multilabeled counter (Wallac, PerkinElmer, Courtaboeuf, France).
(§4) IC50: drug concentration to obtain a 50% inhibition of cell proliferation.
(§5) The dose-response curves were plotted using XLFit 3 (IDBS, United Kingdom). The IC50 determination values were calculated using the XLFit 3 software from semi-log curves. Individual IC50 determination values as well as mean and SD values were generated.

IGROV-1/CDDP = experiment: MTS cytotoxicity assay, IGROV-1/CDDP; assay type: cell-based, human; settings: IC50 resistant / IC50 sensitive line; cisplatin resistance
Method: (§6) Tumor cells were plated in 96-well flat-bottom microtitration plates (Nunc, Dutscher, Brumath, France) and incubated at 37° C. for 24 hours before treatment in 190 μl of drug-free culture medium supplemented or not with 10% FBS for adherent or suspension growing cell lines, respectively.
(§7) The adherent cell lines were washed once with 200 μl FBS-free culture medium before treatment. Tumor cells were incubated for 4 hours with 10 concentrations of compounds in ¼ dilution step with a top dose of 400 μM (range 4×10^−4 to 4×10^−10 M), with 1% (final concentration) Triton X-100 as positive control and FBS-free culture medium as negative control. The cells (190 μl) were incubated in a 200 μl final volume of FBS-free culture medium containing test substances at 37° C. under 5% CO2.
as §1, §2, §3, §4, §5
(§8) Resistance index was calculated using the following formula: […]
(§9) Resistance index was calculated for each compound for each couple of sensitive and resistant cell lines. Individual resistance index was calculated when IC50 values of both sensitive and corresponding resistant cell lines were determined within same experiment. In addition, resistance index was also calculated ratio of mean IC50 values obtained during three independent experiments.

T-47D cell line = assay type: cell-based, human; settings: 4 h
Method: as §6, §7, §1, §2, §3, §4, §5

Hep G2 cell line = assay type: cell-based, human; settings: 4 h
Method: as §6, §7, §1, §2, §3, §4, §5

Raji cell line = assay type: cell-based, human; settings: 4 h
Method: (§10) Tumor cells were plated in 96-well flat-bottom microtitration plates (Nunc, Dutscher, Brumath, France) and incubated at 37° C. for 24 hours before treatment in 190 μl of drug-free and FBS-free culture medium.
as §7, with “Tumor” for “The adherent cell lines were washed once with 200 μl FBS-free culture medium before treatment. Tumor”, “[…]” for “4×10^−10”
(§11) Three independent experiments were performed, each concentration being issued from quadruplicate. Control cells were treated with vehicle alone. At the end of treatments, the cytotoxic activity was evaluated by a MTS assay (see § 3.3 below).
as §2, §3
(§12) 4.1. IC50 Data was Determined as in Example 1

Hs 445 cell line = assay type: cell-based, human; settings: 4 h
Method: as §10
as §7, with “Tumor” for “The adherent cell lines were washed once with 200 μl FBS-free culture medium before treatment. Tumor”, “[…]” for “4×10^−10”
as §11, §2, §3, §12

[2] = test system: panel of 10 lymphoma cell lines; assay type: cell-based, human; settings: conclusion
Method: as §10
[…] compounds in ¼ dilution step with a top dose of 400 μM (range 4×10^−4 to […]), with 1% (final concentration) Triton X-100 as positive control and FBS-free culture medium as negative control. The cells (190 μl) were incubated in a 200 μl final volume of FBS-free culture medium containing test substances at 37° C. under 5% CO2.
as §11, §2, §3, §12

MCF-7/mdr = experiment: MTS cytotoxicity assay, MCF-7/mdr; assay type: cell-based, human; settings: IC50 resistant / IC50 sensitive line; doxorubicin resistance
Method: as §6, §7, §1, §2, §3, §4, §5, §8, §9

HL-60/ADR = experiment: MTS cytotoxicity assay, HL-60/ADR; assay type: cell-based, human; settings: IC50 resistant / IC50 sensitive line; doxorubicin resistance
Method: as §6, §7, §1, §2, §3, §4, §5, §8, §9

A375 cells = experiment: Confocal microscopy with fluorescence-labeled peptide (internalization); assay type: cell-based, human; settings: 3 μM and 1.5 μM, 30-60 min
Method: Subconfluential A375 cells were seeded at 8,000 cells/well as above, and transfected on the second day using the Lipofectamine LTX with Plus transfection reagents (Invitrogen) following the manufacturer's protocol. The mitochondria were labeled using the pDsRed2-Mito, and the nucleus was labeled using the GFP-Histon2B plasmid (Imaging Platform, University of Tromsø). A day after transfection, cells were washed twice with serum-free RPMI, and treated at different concentration and incubation periods with LTX-315 Pacific Blue or LTX-328 Pacific Blue. […] Control cells were treated with unlabeled LTX-315 and also with serum-free RPMI only. After incubation, cells were fixed with 4% paraformaldehyde in PBS, and the wells were covered with Prolong Gold antifade (Invitrogen). Cells were further analyzed by use of a Leica TCS SP5 confocal microscope, with a […] objective. Pacific Blue, GFP and Ds Red were excited using UV, with 488 and 561 lasers, and fluorescence channels were sequentially detected using the following band passes: UV: 420-480 nm (with attenuation), 488: 501-550 nm and 561: 576-676 nm.

spleen cells = settings: cited from earlier work
A20 lymphoma = experiment: LTX-315 with metronomic CY in A20 lymphoma model; assay type: in vivo, Balb/c mice; settings: metronomic CY, single i.p. 2 mg on day 4
Method: Tumor cells were harvested, washed in RPMI-1640 and injected intradermally (i.d.) into the right side of the abdomen in Balb/c mice (5×10^6 A20 cells per mouse/50 μl RPMI-1640). When animals obtained palpable tumors (20-30 mm^2) animals were injected i.p. with a single dose of CY (day 4) dissolved in saline (2.0 mg CY/500 μl saline). […] Tumor size was measured using an electronic caliper and expressed as the area of an ellipse [(maximum dimension/2)×(minimum dimension/2)×π]. Animals were then euthanized when the product of the perpendicular tumor dimensions reached 130 mm^2 or when tumor ulceration developed.

U-937 cell line = assay type: cell-based, human; settings: 4 h
Method: as §10
(§13) Tumor cells were incubated for 4 hours with 10 concentrations of compounds in ¼ dilution step with a top dose of 400 μM (range 4×10^−4 to […]), with 1% (final concentration) Triton X-100 as positive control and FBS-free culture medium as negative control. The cells (190 μl) were incubated in a 200 μl final volume of FBS-free culture medium containing test substances at 37° C. under 5% CO2.
as §11, §2, §3, §12

U-87 MG cell line = assay type: cell-based, human; settings: 4 h
Method: as §6, §7, §1, §2, §3, §4, §5

RPMI 8226 cell line = assay type: cell-based, human; settings: 4 h
Method: as §6, §7, §1, §2, §3, §4, §5

Ramos cell line = assay type: cell-based, human; settings: 4 h
Method: as §10, §13, §11, §2, §3, §12

CCRF-CEM/VLB = experiment: MTS cytotoxicity assay, CCRF-CEM/VLB; assay type: cell-based, human; settings: IC50 resistant / IC50 sensitive line
Method: as §6
as §7, with “The cells (190 μl) were incubated in a 200 μl final volume of FBS-free culture medium containing test substances at 37° C. under 5% CO2.” left out
Three independent experiments were performed, each concentration being tested in quadruplicate. […] At the end of treatments, the cytotoxic activity was evaluated by a MTS assay (see § 3.3.). […]
as §3, with “Culture plates were incubated for 2 h at 37° C.” left out, “France). […]” for “France).”
as §8

Compound | IC50 [1] [µM] | IC50 range against 37 human cancer cell lines [1] | Resistance index (RI), IGROV-1/CDDP (IGROV-1/CDDP) | IC50 (T-47D cell line) [µM] | IC50 (Hep G2 cell line) [µM] | IC50 (Raji cell line) [µM] | IC50 (Hs 445 cell line) [µM] | IC50 range against 10 human lymphoma cell lines [2] | Resistance index (RI), MCF-7/mdr (MCF-7/mdr) | Resistance index (RI), HL-60/ADR (HL-60/ADR) | Internalization of Pacific Blue-labeled peptide (A375 cells) | Relative number of CD19+ and Tregs (spleen cells; after CY administration) | Relative numbers of CD4+ and CD8+ T cells in spleens and LNs (spleen cells; after CY administration) | Drop in spleen cells at low-point (spleen cells; single i.p. injection of 2 mg CY, fourth day after administration) [%] | Duration of tumor growth inhibition (A20 lymphoma) [days] | IC50 (U-937 cell line) [µM] | IC50 (U-87 MG cell line) [µM] | IC50 (RPMI 8226 cell line) [µM] | IC50 (Ramos cell line) [µM] | Resistance index (RI), CCRF-CEM/VLB (CCRF-CEM/VLB)
N=C(N)NCCC[C@H](NC(=O)[C@H](Cc1c[nH]c2ccccc12)NC(=O)[C@H](Cc1c[nH]c2ccccc12)NC(=O)[C@H](CCCNC(=N)N)NC(=O)[C@H](CCCNC(=N)N)NC(=O)[C@@H](NC(=O)[C@H](Cc1c[nH]c2ccccc12)NC(=O)[C@H](CCCNC(=N)N)NC(=O)[C@@H](N)CCCNC(=N)N)C(c1ccccc1)c1ccccc1)C(N)=O [LTX-320, R-R-W-Dip-R-R-W-W-R-NH2] (H-RRW[Dip]RRWWR-NH2; N-terminus assumed) | 7.58 ± 2.79 | micromolar to ten micromolar range | 0.49 | 3.46 ± 0.22 | 16.6 ± 3.15 | 11.3 ± 3.42 | 2.22 | micromolar range | 1.19 | 0.90 | – | – | – | – | – | – | – | – | – | –
K-A-Q-Dip-Q-K-Q-A-W-NH2 (KAQ[Dip]QKQAW-NH2; N-terminus assumed; SMILES C[C@H](NC(=O)[C@H](CCC(N)=O)NC(=O)[C@H](CCCCN)NC(=O)[C@H](CCC(N)=O)NC(=O)[C@@H](NC(=O)[C@H](CCC(N)=O)NC(=O)[C@H](C)NC(=O)[C@@H](N)CCCCN)C(c1ccccc1)c1ccccc1)C(=O)N[C@@H](Cc1c[nH]c2ccccc12)C(N)=O) [LTX-328, reference compound] | – | – | – | – | – | – | – | – | – | – | did not demonstrate any internalization at any concentration or incubation time tested | – | – | – | – | – | – | – | – | –
O=P1(N(CCCl)CCCl)NCCCO1 (centres unmarked) [CY, cyclophosphamide] | – | – | – | – | – | – | – | – | – | – | – | decreased sharply | increased | 50 | 7 to 10 | – | – | – | – | –
NCCCC[C@H](NC(=O)[C@H](Cc1c[nH]c2ccccc12)NC(=O)[C@H](CCCCN)NC(=O)[C@H](CCCCN)NC(=O)[C@@H](NC(=O)[C@H](Cc1c[nH]c2ccccc12)NC(=O)[C@H](CCCCN)NC(=O)[C@H](CCCCN)NC(=O)[C@@H](N)Cc1c[nH]c2ccccc12)C(c1ccccc1)c1ccccc1)C(N)=O [LTX-302, W-K-K-W-Dip-K-K-W-K-NH2] (H-WKKW[Dip]KKWK-NH2; N-terminus assumed) | 12.1 ± 4.27 | micromolar to ten micromolar range | 0.33 | 4.83 ± 0.96 | 20.1 ± 4.07 | 12.5 ± 3.52 | – | micromolar range | 1.23 | 1.31 | – | – | – | – | – | 5.3 ± 2.02 | – | – | – | –
NCCCC[C@H](NC(=O)[C@H](Cc1c[nH]c2ccccc12)NC(=O)[C@H](Cc1c[nH]c2ccccc12)NC(=O)[C@H](CCCCN)NC(=O)[C@H](CCCCN)NC(=O)[C@H](Cc1c[nH]c2ccccc12)NC(=O)[C@H](Cc1ccc(-c2ccccc2)cc1)NC(=O)[C@H](CCCCN)NC(=O)[C@@H](N)CCCCN)C(N)=O [LTX-313, K-K-Bip-W-K-K-W-W-K-NH2] (H-KK[Bip]WKKWWK-NH2; N-terminus assumed) | 9.6 ± 3.73 | micromolar to ten micromolar range | 0.49 | – | – | 16.1 ± 4.86 | – | micromolar range | 1.24 | 1.16 | – | – | – | – | – | – | 18.5 ± 4.86 | 4.01 ± 0.39 | 3.21 ± 2.81 | 0.76
NCCCC[C@@H](N)C(=O)N[C@H](CCCCN)C(=O)N[C@H](Cc1ccc(-c2ccccc2)cc1)C(=O)N[C@H](Cc1c[nH]c2ccccc12)C(=O)N[C@H](CCCCN)C(=O)N[C@H](CCCCN)C(=O)N[C@H](Cc1c[nH]c2ccccc12)C(=O)N[C@H](Cc1c[nH]c2ccccc12)C(=O)N[C@H](CCCCN)C(N)=O [LTX-329, k-k-bip-w-k-k-w-w-k-NH2] (H-[dK][dK][dBip][dW][dK][dK][dW][dW][dK]-NH2; N-terminus assumed) | 8.17 ± 3.2 | micromolar to ten micromolar range | 0.46 | 2.43 ± 0.34 | – | 8.7 ± 1.7 | 2.46 | micromolar range | 1.07 | 0.80 | – | – | – | – | – | – | 16.9 ± 1.18 | – | – | 0.76
